Laboratory results as given in patent US20260207602A1, “EGFR INHIBITORS” (Blueprint Medicines Corporation, priority 2022, published 2026).

Key:
[1] = target: intracellular phosphorylation of EGFR (Tyr1068) in PC-9 cells (Homo sapiens, UniProt P00533, DEL746-750); experiment: PC-9 pEGFR AlphaLISA assay; type: cell-based; details: 4 hours incubation, read-out: Phos EGFR PC9 IC50
In short: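 PC-9 cells (EGFR del746-750) in phenol-free DMEM/10% FBS, adhered overnight, then exposed to 10-point 4-fold compound dilutions for 4 h at 37 °C. Lysates assayed for pEGFR Tyr1068 by AlphaLISA SureFire Ultra; IC50 from percent pEGFR inhibition vs log concentration.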

EGFR L858R = target: T1, EGFR L858R (Homo sapiens, UniProt P00533, L858R); experiment: Biochemical EGFR inhibition assay (Caliper mobility shift), EGFR L858R; details: biochemical Caliper mobility shift assay, EGFR L858R enzyme; read-out: Enz EGFR L858R IC50
T1 construct: purchased SignalChem E10-122BG
T1 sequence (P00533 25-1210 L858R): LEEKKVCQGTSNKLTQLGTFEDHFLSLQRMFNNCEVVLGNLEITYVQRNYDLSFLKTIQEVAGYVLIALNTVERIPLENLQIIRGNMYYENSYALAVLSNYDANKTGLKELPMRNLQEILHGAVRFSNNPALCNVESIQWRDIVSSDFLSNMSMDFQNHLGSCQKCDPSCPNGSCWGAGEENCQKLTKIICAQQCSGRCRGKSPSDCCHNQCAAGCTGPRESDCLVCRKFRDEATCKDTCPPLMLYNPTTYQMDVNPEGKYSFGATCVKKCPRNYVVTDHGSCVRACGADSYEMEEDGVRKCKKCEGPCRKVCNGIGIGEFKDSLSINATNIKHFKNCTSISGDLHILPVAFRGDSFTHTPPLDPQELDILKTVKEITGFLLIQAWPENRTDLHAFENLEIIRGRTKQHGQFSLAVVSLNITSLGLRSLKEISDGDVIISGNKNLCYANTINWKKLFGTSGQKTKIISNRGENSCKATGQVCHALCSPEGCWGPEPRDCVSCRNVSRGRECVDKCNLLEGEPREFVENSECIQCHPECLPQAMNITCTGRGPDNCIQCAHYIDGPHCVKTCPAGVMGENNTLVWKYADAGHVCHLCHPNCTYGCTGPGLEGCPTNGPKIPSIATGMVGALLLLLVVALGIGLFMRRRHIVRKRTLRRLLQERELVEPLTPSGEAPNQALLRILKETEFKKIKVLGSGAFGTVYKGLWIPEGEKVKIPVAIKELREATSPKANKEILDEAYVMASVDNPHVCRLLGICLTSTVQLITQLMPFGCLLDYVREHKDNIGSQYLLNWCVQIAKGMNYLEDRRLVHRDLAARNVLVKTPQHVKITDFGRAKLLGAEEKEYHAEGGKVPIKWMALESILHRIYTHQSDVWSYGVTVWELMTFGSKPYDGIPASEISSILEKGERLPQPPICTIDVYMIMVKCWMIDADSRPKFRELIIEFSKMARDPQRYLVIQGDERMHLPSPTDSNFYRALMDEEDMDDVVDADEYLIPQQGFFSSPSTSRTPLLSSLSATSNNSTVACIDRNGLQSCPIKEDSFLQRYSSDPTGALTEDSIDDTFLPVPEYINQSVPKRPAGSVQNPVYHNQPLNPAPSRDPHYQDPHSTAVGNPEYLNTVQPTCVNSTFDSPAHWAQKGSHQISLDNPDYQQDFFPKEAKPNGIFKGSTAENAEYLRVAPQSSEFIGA
In short: (§1)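 Recombinant EGFR mutant phosphorylates 2.5 μM 5-FAM peptide at 1.0 mM ATP or ATP Km, in 100 mM HEPES pH 7.5, 10 mM MgCl2, 1 mM DTT, 1% DMSO, 25 °C to 10–20% conversion, EDTA stop. Caliper mobility shift separation; apparent IC50 from percent activity versus log concentration.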

EGFR (d746-750) = target: T2, EGFR (d746-750) (Homo sapiens, UniProt P00533, DEL746-750); experiment: Biochemical EGFR inhibition assay (Caliper mobility shift), EGFR (d746-750); details: biochemical Caliper mobility shift assay, EGFR Exon 19-del enzyme; read-out: Enz EGFR Exon 19-del IC50
T2 construct: purchased SignalChem E10-122JG
T2 sequence (P00533 with tags, fused parts or gaps DEL746-750 limits assumed): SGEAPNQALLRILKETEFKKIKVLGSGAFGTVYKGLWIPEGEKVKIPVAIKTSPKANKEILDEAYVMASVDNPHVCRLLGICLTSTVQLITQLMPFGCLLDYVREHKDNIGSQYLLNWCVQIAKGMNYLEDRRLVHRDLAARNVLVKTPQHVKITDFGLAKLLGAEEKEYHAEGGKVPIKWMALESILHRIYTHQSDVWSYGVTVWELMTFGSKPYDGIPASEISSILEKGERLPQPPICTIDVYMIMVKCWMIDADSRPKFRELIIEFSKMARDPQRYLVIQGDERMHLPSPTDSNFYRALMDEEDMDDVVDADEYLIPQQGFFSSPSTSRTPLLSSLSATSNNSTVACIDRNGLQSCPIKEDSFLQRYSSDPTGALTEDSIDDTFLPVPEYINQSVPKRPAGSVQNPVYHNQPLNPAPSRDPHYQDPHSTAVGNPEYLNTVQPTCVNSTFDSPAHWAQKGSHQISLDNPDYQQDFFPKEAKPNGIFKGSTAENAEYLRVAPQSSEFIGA
In short: as §1

intracellular phosphorylation of EGFR (Tyr1068) in PC-9 cells, sequence (P00533 with tags, fused parts or gaps DEL746-750): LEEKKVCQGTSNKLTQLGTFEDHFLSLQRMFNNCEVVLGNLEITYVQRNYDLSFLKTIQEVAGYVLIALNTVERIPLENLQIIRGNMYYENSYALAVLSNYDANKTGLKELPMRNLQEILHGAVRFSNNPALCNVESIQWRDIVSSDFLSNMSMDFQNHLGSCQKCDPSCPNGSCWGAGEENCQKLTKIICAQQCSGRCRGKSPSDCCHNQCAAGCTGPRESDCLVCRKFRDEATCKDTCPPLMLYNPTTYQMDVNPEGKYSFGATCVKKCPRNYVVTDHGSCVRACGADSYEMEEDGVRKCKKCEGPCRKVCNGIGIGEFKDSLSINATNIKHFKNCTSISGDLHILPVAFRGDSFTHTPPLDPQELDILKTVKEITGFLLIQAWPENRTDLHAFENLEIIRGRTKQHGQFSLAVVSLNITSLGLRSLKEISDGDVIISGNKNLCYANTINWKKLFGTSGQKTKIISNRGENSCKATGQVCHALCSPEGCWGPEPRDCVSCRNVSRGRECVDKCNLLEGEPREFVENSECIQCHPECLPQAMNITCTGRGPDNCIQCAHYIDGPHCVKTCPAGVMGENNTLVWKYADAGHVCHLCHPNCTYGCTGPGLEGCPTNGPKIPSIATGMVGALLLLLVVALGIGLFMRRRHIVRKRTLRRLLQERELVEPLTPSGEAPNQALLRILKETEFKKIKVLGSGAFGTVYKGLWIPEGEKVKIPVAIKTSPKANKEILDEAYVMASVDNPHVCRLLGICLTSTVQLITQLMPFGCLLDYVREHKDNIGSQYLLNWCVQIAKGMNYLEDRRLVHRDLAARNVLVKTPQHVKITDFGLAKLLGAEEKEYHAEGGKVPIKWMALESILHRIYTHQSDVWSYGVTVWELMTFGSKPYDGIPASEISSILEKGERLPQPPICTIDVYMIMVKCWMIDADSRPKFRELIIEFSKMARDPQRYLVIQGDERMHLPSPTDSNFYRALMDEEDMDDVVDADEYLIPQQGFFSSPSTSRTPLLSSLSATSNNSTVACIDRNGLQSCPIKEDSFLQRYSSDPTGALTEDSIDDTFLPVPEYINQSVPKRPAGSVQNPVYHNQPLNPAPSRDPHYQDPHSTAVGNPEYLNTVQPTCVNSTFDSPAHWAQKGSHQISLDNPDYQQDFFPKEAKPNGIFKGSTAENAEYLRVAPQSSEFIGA

C[C@@H]1CN(C)CCN1c1cc(O[C@H](C)C2COC2)c2c(Nc3ccc4ncsc4c3F)ncnc2c1 (single isomer, unassigned) [Example 106, N-(7-((R)-2,4-dimethylpiperazin-1-yl)-5-((R)-1-(oxetan-3-yl)ethoxy)quinazolin-4-yl)-7-fluorobenzo[d]thiazol-6-amine or N-(7-((R)-2,4-dimethylpiperazin-1-yl)-5-((S)-1-(oxetan-3-yl)ethoxy)quinazolin-4-yl)-7-fluorobenzo[d]thiazol-6-amine]
IC50 [1]: 10.1 to 50 nM | IC50 (EGFR L858R): ≤ 10 nM | IC50 (EGFR (d746-750)): ≤ 10 nM

CN1C[C@H](F)C[C@@H](Oc2cc(-c3cnn(C)c3)cc3ncnc(Nc4ccc5ncsc5c4)c23)C1 (single isomer, unassigned) [Example 333]
IC50 [1]: 10.1 to 50 nM | IC50 (EGFR L858R): ≤ 10 nM | IC50 (EGFR (d746-750)): ≤ 10 nM

CN1CC[C@@H](F)[C@@H](Oc2cc(-c3cnn(C)c3)cc3ncnc(Nc4ccc5ncsc5c4)c23)C1 (single isomer, unassigned) [Example 161]
IC50 [1]: ≤ 10 nM | IC50 (EGFR L858R): ≤ 10 nM | IC50 (EGFR (d746-750)): ≤ 10 nM

C[C@@H](Oc1cc(-c2cnn(C)c2)cc2ncnc(Nc3ccc4ncsc4c3)c12)C1CC1 [Example 65, (R)-N-(5-(1-cyclopropylethoxy)-7-(1-methyl-1H-pyrazol-4-yl)quinazolin-4-yl)benzo[d]thiazol-6-amine]
IC50 [1]: ≤ 10 nM | IC50 (EGFR L858R): ≤ 10 nM | IC50 (EGFR (d746-750)): ≤ 10 nM

COc1nn(C)cc1-c1cc(O[C@@H]2CCNC[C@H]2F)c2c(Nc3ccc4ncsc4c3F)ncnc2c1 [Example 350, 7-fluoro-N-(5-(((3R,4R)-3-fluoropiperidin-4-yl)oxy)-7-(3-methoxy-1-methyl-1H-pyrazol-4-yl)quinazolin-4-yl)benzo[d]thiazol-6-amine]
IC50 [1]: ≤ 10 nM | IC50 (EGFR L858R): ≤ 10 nM | IC50 (EGFR (d746-750)): ≤ 10 nM

C[C@@H](Oc1cc(-c2cnn(C)c2)cc2ncnc(Nc3ccc4ncsc4c3)c12)C(F)F (single isomer, unassigned) [Example 52]
IC50 [1]: ≤ 10 nM | IC50 (EGFR L858R): ≤ 10 nM | IC50 (EGFR (d746-750)): ≤ 10 nM

C[C@@H](Oc1cc(-c2cnn(C)c2)cc2ncnc(Nc3ccc4ncsc4c3)c12)[C@H]1CNCCO1 (single isomer, unassigned) [Example 207]
IC50 [1]: ≤ 10 nM | IC50 (EGFR L858R): ≤ 10 nM | IC50 (EGFR (d746-750)): ≤ 10 nM

Cn1cc(-c2cc(OC[C@@H]3CCCO3)c3c(Nc4ccc5ncsc5c4)ncnc3c2)cn1 [Example 32, (S)-N-(7-(1-methyl-1H-pyrazol-4-yl)-5-((tetrahydrofuran-2-yl)methoxy)quinazolin-4-yl)benzo[d]thiazol-6-amine]
IC50 [1]: 10.1 to 50 nM | IC50 (EGFR L858R): ≤ 10 nM | IC50 (EGFR (d746-750)): ≤ 10 nM

CO[C@@H]1CCN(C)C[C@H]1Oc1cc(-c2cnn(C)c2)cc2ncnc(Nc3ccc4ncsc4c3)c12 (single isomer, unassigned) [Example A39]
IC50 [1]: > 50.1 nM | IC50 (EGFR L858R): 10.1 to 50 nM | IC50 (EGFR (d746-750)): ≤ 10 nM

CN1CC[C@@H](Nc2cc3c(Nc4ccc5ncsc5c4)ncnc3cc2-c2cnn(C)c2)[C@H](F)C1 (single isomer, unassigned) [Example 325]
IC50 [1]: > 50.1 nM | IC50 (EGFR L858R): 10.1 to 50 nM | IC50 (EGFR (d746-750)): ≤ 10 nM

COc1cc2ncnc(Nc3ccc4ncsc4c3)c2cc1-c1cnn([C@@H]2CCN(C)C[C@@H]2F)c1 (racemic) [Example 165, cis-N-(6-(1-((3R,4S)-3-fluoro-1-methylpiperidin-4-yl)-1H-pyrazol-4-yl)-7-methoxyquinazolin-4-yl)benzo[d]thiazol-6-amine]
IC50 [1]: ≤ 10 nM | IC50 (EGFR L858R): ≤ 10 nM | IC50 (EGFR (d746-750)): ≤ 10 nM

COC[C@@H](C)Oc1cc(-n2cc([C@H](C)O)cn2)cc2ncnc(Nc3ccc4ncsc4c3F)c12 [Example A20, (S)-1-(1-(4-((7-fluorobenzo[d]thiazol-6-yl)amino)-5-(((R)-1-methoxypropan-2-yl)oxy)quinazolin-7-yl)-1H-pyrazol-4-yl)ethan-1-ol, OR (R)-1-(1-(4-((7-fluorobenzo[d]thiazol-6-yl)amino)-5-(((R)-1-methoxypropan-2-yl)oxy)quinazolin-7-yl)-1H-pyrazol-4-yl)ethan-1-ol]
IC50 [1]: ≤ 10 nM | IC50 (EGFR L858R): ≤ 10 nM | IC50 (EGFR (d746-750)): ≤ 10 nM

COc1nn(C)cc1-c1cc(OC2CCN(CC(F)F)CC2)c2c(Nc3ccc4ncsc4c3)ncnc2c1 [Example 386, N-(5-((1-(2,2-difluoroethyl)piperidin-4-yl)oxy)-7-(3-methoxy-1-methyl-1H-pyrazol-4-yl)quinazolin-4-yl)benzo[d]thiazol-6-amine]
IC50 [1]: ≤ 10 nM | IC50 (EGFR L858R): ≤ 10 nM | IC50 (EGFR (d746-750)): ≤ 10 nM

Cn1cc(-c2cc(OCCN3CCC3)c3c(Nc4ccc5ncsc5c4)ncnc3c2)cn1 [Example 409, N-(5-(2-(azetidin-1-yl)ethoxy)-7-(1-methyl-1H-pyrazol-4-yl)quinazolin-4-yl)benzo[d]thiazol-6-amine]
IC50 [1]: 10.1 to 50 nM | IC50 (EGFR L858R): 10.1 to 50 nM | IC50 (EGFR (d746-750)): ≤ 10 nM

CN1CC[C@H](O)[C@@H](Oc2cc(-c3cnn(C)c3)cc3ncnc(Nc4ccc5ncsc5c4)c23)C1 (single isomer, unassigned) [Example A34]
IC50 [1]: > 50.1 nM | IC50 (EGFR L858R): 10.1 to 50 nM | IC50 (EGFR (d746-750)): ≤ 10 nM

CC(Oc1cc(-c2cn[nH]c2)cc2ncnc(Nc3ccc4ncsc4c3)c12)C1COC1 (single isomer, unassigned) [Example 122]
IC50 [1]: ≤ 10 nM | IC50 (EGFR L858R): ≤ 10 nM | IC50 (EGFR (d746-750)): ≤ 10 nM

CN1CCC(Oc2cc(-c3cnn(C(F)F)c3)cc3ncnc(Nc4ccc5ncsc5c4)c23)CC1 [Example 189, N-(7-(1-(difluoromethyl)-1H-pyrazol-4-yl)-5-((1-methylpiperidin-4-yl)oxy)quinazolin-4-yl)benzo[d]thiazol-6-amine]
IC50 [1]: 10.1 to 50 nM | IC50 (EGFR L858R): 10.1 to 50 nM | IC50 (EGFR (d746-750)): ≤ 10 nM

C[C@@H]1CN(C)CCN1c1cc(O[C@H](C)C2COC2)c2c(Nc3ccc4ncsc4c3F)ncnc2c1 (single isomer, unassigned) [Example 107, N-(7-((R)-2,4-dimethylpiperazin-1-yl)-5-((R)-1-(oxetan-3-yl)ethoxy)quinazolin-4-yl)-7-fluorobenzo[d]thiazol-6-amine or N-(7-((R)-2,4-dimethylpiperazin-1-yl)-5-((S)-1-(oxetan-3-yl)ethoxy)quinazolin-4-yl)-7-fluorobenzo[d]thiazol-6-amine]
IC50 [1]: 10.1 to 50 nM | IC50 (EGFR L858R): 10.1 to 50 nM | IC50 (EGFR (d746-750)): ≤ 10 nM

C[C@@H](Oc1cc(N2CCN(C)CC2)cc2ncnc(Nc3ccc4ncsc4c3)c12)C1COC1 (single isomer, unassigned) [Example 96]
IC50 [1]: 10.1 to 50 nM | IC50 (EGFR L858R): ≤ 10 nM | IC50 (EGFR (d746-750)): ≤ 10 nM

CN(C)C1CCC(Oc2cc(-c3cnn(C)c3)cc3ncnc(Nc4ccc5ncsc5c4)c23)CC1 (stereo not drawn) [Example 21, N-(5-((4-(dimethylamino)cyclohexyl)oxy)-7-(1-methyl-1H-pyrazol-4-yl)quinazolin-4-yl)benzo[d]thiazol-6-amine]
IC50 [1]: ≤ 10 nM | IC50 (EGFR L858R): ≤ 10 nM | IC50 (EGFR (d746-750)): ≤ 10 nM

Cn1cc(-c2cc(OCC(=O)N3CCC3)c3c(Nc4ccc5ncsc5c4)ncnc3c2)cn1 [Example 271, 1-(azetidin-1-yl)-2-((4-(benzo[d]thiazol-6-ylamino)-7-(1-methyl-1H-pyrazol-4-yl)quinazolin-5-yl)oxy)ethan-1-one]
IC50 [1]: 10.1 to 50 nM | IC50 (EGFR L858R): ≤ 10 nM | IC50 (EGFR (d746-750)): ≤ 10 nM

C[C@@H](Oc1cc(N2CCN(C)CC2)cc2ncnc(Nc3ccc4ncsc4c3F)c12)C1COC1 (single isomer, unassigned) [Example 94]
IC50 [1]: 10.1 to 50 nM | IC50 (EGFR L858R): ≤ 10 nM | IC50 (EGFR (d746-750)): ≤ 10 nM

C[C@@H](Oc1cc(-c2cnn(C)c2)cc2ncnc(Nc3ccc4ncsc4c3)c12)C1COC1 [Example 133, (R)—N-(7-(1-methyl-1H-pyrazol-4-yl)-5-(1-(oxetan-3-yl)ethoxy)quinazolin-4-yl)benzo[d]thiazol-6-amine]
IC50 [1]: ≤ 10 nM | IC50 (EGFR L858R): ≤ 10 nM | IC50 (EGFR (d746-750)): ≤ 10 nM

Cn1cc(-c2cc(O[C@@H]3CNC[C@@H]3F)c3c(Nc4ccc5ncsc5c4)ncnc3c2)cn1 (racemic) [Example 379, N-(5-(((3R,4S)-4-fluoropyrrolidin-3-yl)oxy)-7-(1-methyl-1H-pyrazol-4-yl)quinazolin-4-yl)benzo[d]thiazol-6-amine]
IC50 [1]: > 50.1 nM | IC50 (EGFR L858R): 10.1 to 50 nM | IC50 (EGFR (d746-750)): ≤ 10 nM

C[C@H]1COCC[C@H]1Oc1cc(-c2cnn(C)c2)cc2ncnc(Nc3ccc4ncsc4c3)c12 (racemic) [Example 25, cis-racemic N-(7-(1-methyl-1H-pyrazol-4-yl)-5-(((3S,4R)-3-methyltetrahydro-2H-pyran-4-yl)oxy)quinazolin-4-yl)benzo[d]thiazol-6-amine]
IC50 [1]: 10.1 to 50 nM | IC50 (EGFR L858R): ≤ 10 nM | IC50 (EGFR (d746-750)): ≤ 10 nM

COc1cn(C)nc1-c1cc(OC2CCN(C)CC2)c2c(Nc3ccc4ncsc4c3)ncnc2c1 [Example 131, N-(7-(4-methoxy-1-methyl-1H-pyrazol-3-yl)-5-((1-methylpiperidin-4-yl)oxy)quinazolin-4-yl)benzo[d]thiazol-6-amine]
IC50 [1]: 10.1 to 50 nM | IC50 (EGFR L858R): 10.1 to 50 nM | IC50 (EGFR (d746-750)): ≤ 10 nM

CN1CC[C@H](Oc2cc(-c3cnn(C)c3)cc3ncnc(Nc4ccc5ncsc5c4)c23)C1=O (single isomer, unassigned) [Example 24]
IC50 [1]: 10.1 to 50 nM | IC50 (EGFR L858R): ≤ 10 nM | IC50 (EGFR (d746-750)): ≤ 10 nM

Cn1cc(-c2cc(OC3COC3)c3c(Nc4ccc5ncsc5c4)ncnc3c2)cn1 [Example 406, N-(7-(1-methyl-1H-pyrazol-4-yl)-5-(oxetan-3-yloxy)quinazolin-4-yl)benzo[d]thiazol-6-amine]
IC50 [1]: ≤ 10 nM | IC50 (EGFR L858R): ≤ 10 nM | IC50 (EGFR (d746-750)): ≤ 10 nM
